The source of these data is patent publication US9951068B2 (Proximagen Limited, priority 2013, dated 2018).

As usually defined, the IC50 is the concentration that inhibits the measured activity by half.

Data set [1] addresses purified recombinantly expressed human SSAO (Homo sapiens (Human), UniProt Q16853). Description: SSAO enzyme inhibition assay (HRP-coupled hydrogen peroxide detection or 14C-benzaldehyde detection, benzylamine substrate). It counts as biochemical. Conditions: SSAO inhibitory activity, human recombinant SSAO, RT. The gist of the method: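 Two read-outs at room temperature, each after ~15 min enzyme–inhibitor pre-incubation: 14C-benzaldehyde from 40 uM labelled benzylamine with 10 ug/ml enzyme, 1 h, PBS; or HRP-coupled H2O2 detection using 100 uM benzylamine, 1 ug/ml enzyme, pH 7.4 phosphate, read kinetically 1-2 h. Four-parameter logistic IC50s.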

Data set [2] addresses human ether a go-go related gene (hERG) K+ channel (Homo sapiens (Human), UniProt Q12809). Description: hERG assay, IonWorks patch clamp electrophysiology. Type of data set: cell-based. The conditions noted are these: Chinese Hamster Lung cell line stably expressing hERG; max assay concentration 11 uM. Here is the method: Compounds of the invention were tested for inhibition of the human ether a go-go related gene (hERG) K^+ channel using IonWorks patch clamp electrophysiology. 8 Point concentration-response curves were generated on two occasions using 3-fold serial dilutions from the maximum assay concentration (11 uM). Electrophysiological recordings were made from a Chinese Hamster Lung cell line stably expressing the full length hERG channel. Single cell ion currents were measured in the perforated patch clamp configuration (100 ug/mL amphoterocin) at room temperature using an IonWorks Quattro instrument. The internal solution contained 140 mM KCl, 1 mM MgCl2, 1 mM EGTA and 20 mM HEPES and was buffered to pH 7.3. The external solution contained 138 mM NaCl, 2.7 mM KCl, 0.9 mM CaCl2, 0.5 mM MgCl2, 8 mM Na2HPO4 and 1.5 mM KH2PO4, and was buffered to pH 7.3. […] This sequence was repeated 5 times at a frequency of 0.25 Hz. Currents were measured from the tail step at the 5th pulse, and referenced to the holding current. Compounds were incubated for 6-7 min prior to a second measurement of the hERG signal using an identical pulse train. […] A control compound (quinidine) was used (see Table 20 below).
On the technique in general: Block of hERG is tested as a sign of cardiac risk.

Chain of purified recombinantly expressed human SSAO (Q16853 29-763): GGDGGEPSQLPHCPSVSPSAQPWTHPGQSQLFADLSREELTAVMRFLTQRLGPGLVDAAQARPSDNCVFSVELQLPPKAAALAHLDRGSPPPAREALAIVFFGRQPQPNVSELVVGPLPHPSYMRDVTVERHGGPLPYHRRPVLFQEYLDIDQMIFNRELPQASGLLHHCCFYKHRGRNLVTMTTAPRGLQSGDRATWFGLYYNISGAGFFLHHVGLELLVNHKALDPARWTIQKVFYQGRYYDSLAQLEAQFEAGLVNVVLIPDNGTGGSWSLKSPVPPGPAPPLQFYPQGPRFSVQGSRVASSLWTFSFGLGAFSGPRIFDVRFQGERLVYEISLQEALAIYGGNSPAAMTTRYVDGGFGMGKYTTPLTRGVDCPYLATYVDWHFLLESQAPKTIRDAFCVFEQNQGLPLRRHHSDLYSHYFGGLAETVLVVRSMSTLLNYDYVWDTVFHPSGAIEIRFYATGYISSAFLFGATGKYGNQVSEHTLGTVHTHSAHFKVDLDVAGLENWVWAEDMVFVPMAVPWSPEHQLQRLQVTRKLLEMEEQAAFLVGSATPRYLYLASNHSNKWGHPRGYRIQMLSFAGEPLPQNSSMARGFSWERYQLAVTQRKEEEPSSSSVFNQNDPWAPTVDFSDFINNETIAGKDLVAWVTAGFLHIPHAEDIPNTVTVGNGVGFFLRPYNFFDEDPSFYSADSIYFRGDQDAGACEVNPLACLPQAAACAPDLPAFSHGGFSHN
Chain of human ether a go-go related gene (hERG) K+ channel (Q12809 whole entry): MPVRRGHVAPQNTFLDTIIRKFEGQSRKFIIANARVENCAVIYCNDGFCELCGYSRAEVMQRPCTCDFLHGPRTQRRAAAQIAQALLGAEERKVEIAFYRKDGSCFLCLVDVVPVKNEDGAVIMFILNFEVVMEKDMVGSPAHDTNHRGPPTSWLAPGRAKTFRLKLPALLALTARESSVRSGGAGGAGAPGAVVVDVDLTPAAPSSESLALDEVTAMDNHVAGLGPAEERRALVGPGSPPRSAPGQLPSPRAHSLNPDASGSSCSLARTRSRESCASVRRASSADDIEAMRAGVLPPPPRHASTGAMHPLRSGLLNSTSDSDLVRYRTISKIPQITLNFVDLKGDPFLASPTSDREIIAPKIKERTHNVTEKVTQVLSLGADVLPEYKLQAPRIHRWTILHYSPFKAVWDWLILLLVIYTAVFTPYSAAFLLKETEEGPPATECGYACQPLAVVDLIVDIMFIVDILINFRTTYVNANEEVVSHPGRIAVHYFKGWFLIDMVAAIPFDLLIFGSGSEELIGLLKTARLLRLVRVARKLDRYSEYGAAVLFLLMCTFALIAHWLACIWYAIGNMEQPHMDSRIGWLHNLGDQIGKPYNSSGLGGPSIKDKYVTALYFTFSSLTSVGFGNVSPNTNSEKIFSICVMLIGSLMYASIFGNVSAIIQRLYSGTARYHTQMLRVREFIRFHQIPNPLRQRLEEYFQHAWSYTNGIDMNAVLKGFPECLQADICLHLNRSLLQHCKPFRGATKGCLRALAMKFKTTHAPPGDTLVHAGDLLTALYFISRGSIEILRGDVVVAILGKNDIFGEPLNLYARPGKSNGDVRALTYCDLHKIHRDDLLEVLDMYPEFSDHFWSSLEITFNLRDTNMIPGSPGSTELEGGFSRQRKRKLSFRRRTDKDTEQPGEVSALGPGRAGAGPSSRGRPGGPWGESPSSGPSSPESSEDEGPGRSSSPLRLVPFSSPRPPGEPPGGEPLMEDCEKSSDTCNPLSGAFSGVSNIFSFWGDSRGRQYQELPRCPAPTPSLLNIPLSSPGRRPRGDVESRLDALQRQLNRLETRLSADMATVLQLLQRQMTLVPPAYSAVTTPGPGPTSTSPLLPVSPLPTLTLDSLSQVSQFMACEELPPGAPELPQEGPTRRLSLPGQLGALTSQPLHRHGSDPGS

Turning to `Clc1ccc(-n2c(-c3ccc(N4CCOCC4)nc3)nc3ccncc32)nc1` [Example 81, 4-{5-[3-(5-Chloropyridin-2-yl)-3H-imidazo[4,5-c]pyridin-2-yl]pyridin-2-yl}morpholine], the IC50 in data set [1] is below 0.05 µM; in data set [2] it was above 10 µM.
For the molecule `CC(=O)N1CCN(c2ccc(-c3nc4ccncc4n3-c3ccc(F)cc3)cn2)CC1` [Example 86, 1-(4-{5-[3-(4-Fluorophenyl)-3H-imidazo[4,5-c]pyridin-2-yl]pyridin-2-yl}piperazin-1-yl)ethan-1-one], the IC50 in data set [1] was below 0.05 µM; in data set [2] it was above 10 µM.
Taken in the same sequence, the figures for `Fc1ccc(-n2c(-c3cnc(N4CCOCC4)nc3)nc3ccncc32)cc1` [Example 52, 4-{5-[3-(4-Fluorophenyl)-3H-imidazo[4,5-c]pyridin-2-yl]pyrimidin-2-yl}morpholine] were below 0.05 µM and above 10 µM.
Taken in the same sequence, the figures for `O=C1CN(c2ncc(-c3nc4ccncc4n3-c3ccc(Cl)cc3)cn2)CCN1` [Example 13, 4-{5-[3-(4-Chlorophenyl)-3H-imidazo[4,5-c]pyridin-2-yl]pyrimidin-2-yl}piperazin-2-one] were below 0.05 µM and above 10 µM.
As for `NC(=O)N1CCN(c2ccc(-c3nc4ccncc4n3-c3ccc(F)cc3)cn2)CC1` [Example 92, 4-{5-[3-(4-Fluorophenyl)-3H-imidazo[4,5-c]pyridin-2-yl]pyridin-2-yl}piperazine-1-carboxamide], the IC50 in data set [1] was below 0.05 µM; in data set [2], above 10 µM.
Take `CS(=O)(=O)N1CCN(c2ccc(-c3nc4ccncc4n3-c3ccc(F)cc3)cn2)CC1` [Example 89, 1-{5-[3-(4-Fluorophenyl)-3H-imidazo[4,5-c]pyridin-2-yl]pyridin-2-yl}-4-methanesulfonylpiperazine]: the 50% inhibitory concentration (IC50) is below 0.05 µM in data set [1] and above 10 µM in data set [2].
Turning to `Clc1ccc(-n2c(-c3cnc(NC4CCOCC4)nc3)nc3ccncc32)cc1` [Example 11, 5-[3-(4-Chlorophenyl)-3H-imidazo[4,5-c]pyridin-2-yl]-N-(oxan-4-yl)pyrimidin-2-amine; bis(trifluoroacetic acid)], the IC50 in data set [1] is below 0.05 µM; in data set [2], above 10 µM.
Regarding `CC(=O)NC1CCN(c2ccc(-c3nc4ccncc4n3-c3ccc(Cl)cc3)cn2)CC1` [Example 85, N-(1-{5-[3-(4-Chlorophenyl)-3H-imidazo[4,5-c]pyridin-2-yl]pyridin-2-yl}piperidin-4-yl)acetamide], the IC50 is below 0.05 µM in data set [1] and above 10 µM in data set [2].
With `Fc1ccc(-n2c(-c3cnc(N4CCOCC4)nc3)nc3ccncc32)c(F)c1` [Example 78, 4-{5-[3-(2,4-Difluorophenyl)-3H-imidazo[4,5-c]pyridin-2-yl]pyrimidin-2-yl}morpholine], the IC50 was below 0.05 µM in data set [1] and above 10 µM in data set [2].
On the same counts, the results for `Cc1cc(N2CCOCC2)ncc1-c1nc2ccncc2n1-c1ccc(F)cc1` [Example 21, 4-{5-[3-(4-Fluorophenyl)-3H-imidazo[4,5-c]pyridin-2-yl]-4-methylpyridin-2-yl}morpholine] are below 0.05 µM and above 10 µM.
Taken in the same sequence, the figures for `CC1CN(c2ccc(-c3nc4ccncc4n3-c3ccc(F)cc3)cn2)CCO1` (centres unmarked) [Example 70, 4-{5-[3-(4-Fluorophenyl)-3H-imidazo[4,5-c]pyridin-2-yl]pyridin-2-yl}-2-methylmorpholine] were below 0.05 µM and above 10 µM.
Taken in the same sequence, the figures for `Cc1ccc(-n2c(-c3ccc(N4CCOCC4)nc3)nc3ccncc32)nc1` [Example 82, 4-{5-[3-(5-Methylpyridin-2-yl)-3H-imidazo[4,5-c]pyridin-2-yl]pyridin-2-yl}morpholine] were below 0.05 µM and above 10 µM.
Regarding `Fc1ccc(-n2c(-c3cnc(N4CCCC4)nc3)nc3ccncc32)cc1` [Example 69, 5-[3-(4-Fluorophenyl)-3H-imidazo[4,5-c]pyridin-2-yl]-2-(pyrrolidin-1-yl)pyrimidine], the IC50 was below 0.05 µM in data set [1] and above 10 µM in data set [2].
As to `O=C1CN(c2ncc(-c3cc4ccncc4n3-c3ccc(Cl)cc3)cn2)CCN1` [Example 128, 4-{5-[1-(4-Chlorophenyl)-1H-pyrrolo[2,3-c]pyridin-2-yl]pyrimidin-2-yl}piperazin-2-one], the IC50 in data set [1] is below 0.05 µM; in data set [2], above 10 µM.
`C[C@@H]1CN(c2ncc(-c3nc4ccncc4n3-c3ccc(F)cc3)cn2)C[C@H](C)O1` [Example 23, (2R,6S)-4-{5-[3-(4-Fluorophenyl)-3H-imidazo[4,5-c]pyridin-2-yl]pyrimidin-2-yl}-2,6-dimethylmorpholine]: the IC50 is below 0.05 µM in data set [1] and above 10 µM in data set [2].
Taken in the same sequence, the figures for `CN1CCN(Cc2ccc(-c3nc4ccncc4n3-c3ccc(Cl)cc3)cc2)CC1` [Example 46, 1-({4-[3-(4-Chlorophenyl)-3H-imidazo[4,5-c]pyridin-2-yl]phenyl}methyl)-4-methylpiperazine; formic acid] were below 0.05 µM and above 10 µM.
Turning to `Clc1ccc(-n2c(-c3cnc(N4CCOCC4)nc3)nc3ccncc32)nc1` [Example 75, 4-{5-[3-(5-Chloropyridin-2-yl)-3H-imidazo[4,5-c]pyridin-2-yl]pyrimidin-2-yl}morpholine; tris(trifluoroacetic acid)], the figures for the IC50 in data set [1] and in data set [2] were below 0.05 µM and above 10 µM, respectively.
On the same counts, the results for `CC1(C)CN(c2ncc(-c3nc4ccncc4n3-c3ccc(F)cc3)cn2)CCO1` [Example 24, 4-{5-[3-(4-Fluorophenyl)-3H-imidazo[4,5-c]pyridin-2-yl]pyrimidin-2-yl}-2,2-dimethylmorpholine] are below 0.05 µM and above 10 µM.
Taken in the same sequence, the figures for `Clc1ccc(-n2c(-c3ccc(N4CCNCC4)nc3)nc3ccncc32)cc1` [Example 50, 1-{5-[3-(4-Chlorophenyl)-3H-imidazo[4,5-c]pyridin-2-yl]pyridin-2-yl}piperazine] were below 0.05 µM and above 10 µM.
